The target of this experiment is T1, Fructose-1,6-bisphosphatase 1 (Homo sapiens, UniProt P09467).
T1 sequence (P09467 whole entry): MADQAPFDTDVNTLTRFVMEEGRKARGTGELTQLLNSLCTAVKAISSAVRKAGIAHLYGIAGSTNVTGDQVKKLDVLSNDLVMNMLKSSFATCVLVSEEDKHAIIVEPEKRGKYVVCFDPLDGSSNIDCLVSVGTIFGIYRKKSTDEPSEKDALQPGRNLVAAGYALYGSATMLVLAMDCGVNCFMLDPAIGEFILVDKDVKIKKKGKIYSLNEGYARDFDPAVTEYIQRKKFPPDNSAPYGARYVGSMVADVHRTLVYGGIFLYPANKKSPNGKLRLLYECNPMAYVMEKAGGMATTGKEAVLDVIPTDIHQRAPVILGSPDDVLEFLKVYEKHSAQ
Put plainly: Inhibition of human liver FBPase expressed in Escherichia coli by spectrophotometry.

As a reminder, the IC50 is the concentration that gives 50% inhibition. Low values mean inhibition by little substance, high ones a need for much substance.

Compound `Nc1ncnc2c1nc(-c1ccc(P(=O)(O)O)o1)n2CCC1CCCCC1` [5-(6-amino-9-(2-cyclohexylethyl)-9H-purin-8-yl)furan-2-ylphosphonic acid] yielded an IC50 of 1400 nM.
